From patent publication US7321056B2, “Selective peroxisome proliferator activated receptor modulators” (Eli Lilly and Company, priority 2003, dated 2008) come the findings set out here.

For data set [1], the target named is T1, PPARα (Homo sapiens, UniProt Q07869).
T1 construct: For PPARα, a GAL4 chimeric system is the standard CTF assay performed
T1 sequence (Q07869 200-468 limits assumed): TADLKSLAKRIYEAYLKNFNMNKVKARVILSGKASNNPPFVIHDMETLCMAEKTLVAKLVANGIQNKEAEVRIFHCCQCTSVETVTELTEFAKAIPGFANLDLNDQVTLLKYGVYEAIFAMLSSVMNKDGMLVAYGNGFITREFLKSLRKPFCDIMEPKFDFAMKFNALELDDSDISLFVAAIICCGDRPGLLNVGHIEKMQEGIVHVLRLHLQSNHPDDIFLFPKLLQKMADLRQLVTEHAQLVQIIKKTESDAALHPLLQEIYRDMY
Briefly: Cotransfection (CTF) assay, PPARα GAL4 chimeric system in CV-1 cells. Type of data set: cell-based. Conditions: for Eff (α): relative to reference molecule. From the text:
(§1) PPARγ or PPARα are constitutively expressed using plasmids containing the cytomegalovirus promoter. Reporter plasmids for the PPARγ CTF assays contain PPREs from the following genes: acyl coA oxidase (AOX); apolipoprotein A1 (ApoA1); lipoprotein lipase (LPL); or enoyl-CoA hydratase/3-hydroxyacyl-CoA dehydrogenase (HD) plus the thymidine kinase (TK) promoter upstream of the luciferase reporter cDNA. A PPARγ […] galactosidase (GAL4) chimeric system is also used. For PPARα, a GAL4 chimeric system is the standard CTF assay performed. All assays are done in CV-1 cells. Compounds are tested in full log dilution, from 0.1 nM to 10 μM in duplicate. Percent efficacies are determined relative to reference molecules with the efficacy value reflecting the greatest amount of agonist activity achieved in the CTF assay for each compound. Median effective concentration (EC50) values are determined by computer fit to a concentration-response curve. An EC50 value is not calculated if the efficacy for the compound is <20%. Reported values represent means from two to nine separate experiments.

The target in data set [2] is T2, PPARγ ligand binding domain / TRAP220 (Homo sapiens, UniProt P37231).
T2 construct: expressed in transfected cells; host or cells: CV-1 cells
The experiment in a line: Co-factor recruitment assay (mammalian-2-hybrid, CV-1 cells), TRAP220. It counts as cell-based. Conditions: for TRAP220 Eff: relative to a PPARγ full agonist. The text has this:
(§2) A mammalian-2-hybrid assay system in CTF format is done in CV-1 cells. The following plasmids are used: a mammalian expression vector encoding a fusion of the GAL4 DNA binding domain with the PPARγ ligand binding domain; a mammalian expression vector encoding a fusion of the VP16 transactivation domain with the nuclear receptor interaction domain of the respective co-activators: CREB-binding protein (CBP), peroxisome proliferator-activated receptor gamma coactivator-1 (PGC-1), activating signal cointegrator-2 (ASC-2), thyroid hormone receptor-activated protein complex (TRAP220), and the peptide C33; and a reporter plasmid (multimerized GAL4 binding sites/minimal TK promoter driving a luciferase cDNA). Cells are transfected in batch format and treated with compound (full log dilution from 0.1 nM to 10 μM) or vehicle for 24 hours. Subsequently, the cells are lysed and luciferase activity is measured. Luciferase activity serves as the endpoint for interaction between co-activator and receptor. The data are presented as % efficacy relative to a PPARγ full agonist and represent means from four to six separate experiments.

Data set [3] has as its target T3, PPARγ (Homo sapiens, UniProt P37231).
T3 construct: made in house; host or cells: baculovirus expression system
Briefly: Competitive displacement binding assay (SPA), PPARγ. Particulars: PPARγ/RXRα. The protocol: Binding assays are performed using scintillation proximity assay (SPA) technology, PPAR receptors, and corresponding radiolabeled ligands. PPARα and PPARγ along with their heterodimeric partner, retinoid X receptor α, are each produced using a baculovirus expression system. Biotinylated oligonucleotides containing PPAR response elements (PPREs) are used to couple the corresponding receptor dimers to yttrium silicate streptavidin-coated SPA beads. PPARγ- and PPARα-specific ligands are labeled with tritium and used in the appropriate corresponding assays. The IC50 values (compound concentration which causes 50% inhibition) for each competing compound are calculated after deduction of non-specific binding (measured in the presence of 10 μM unlabeled ligand). Compounds are evaluated using an 11-point dose response curve with concentrations ranging from 0.169 nM to 10 μM. Reported values represent means from one to seven separate experiments.
T3 sequence (P37231 whole entry): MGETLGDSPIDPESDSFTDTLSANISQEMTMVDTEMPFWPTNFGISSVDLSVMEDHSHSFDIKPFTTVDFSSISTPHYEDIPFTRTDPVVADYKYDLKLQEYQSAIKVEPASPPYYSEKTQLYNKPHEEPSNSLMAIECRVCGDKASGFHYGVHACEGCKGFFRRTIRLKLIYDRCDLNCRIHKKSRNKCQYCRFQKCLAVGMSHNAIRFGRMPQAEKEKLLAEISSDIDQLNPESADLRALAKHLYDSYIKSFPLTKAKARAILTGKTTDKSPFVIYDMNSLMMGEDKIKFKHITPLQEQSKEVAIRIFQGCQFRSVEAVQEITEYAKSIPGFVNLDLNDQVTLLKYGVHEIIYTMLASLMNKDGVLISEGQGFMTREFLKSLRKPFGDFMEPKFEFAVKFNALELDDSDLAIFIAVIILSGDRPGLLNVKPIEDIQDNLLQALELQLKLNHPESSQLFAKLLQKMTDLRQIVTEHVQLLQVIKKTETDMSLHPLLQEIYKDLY
T3 sequence (P19793 whole entry, further chain): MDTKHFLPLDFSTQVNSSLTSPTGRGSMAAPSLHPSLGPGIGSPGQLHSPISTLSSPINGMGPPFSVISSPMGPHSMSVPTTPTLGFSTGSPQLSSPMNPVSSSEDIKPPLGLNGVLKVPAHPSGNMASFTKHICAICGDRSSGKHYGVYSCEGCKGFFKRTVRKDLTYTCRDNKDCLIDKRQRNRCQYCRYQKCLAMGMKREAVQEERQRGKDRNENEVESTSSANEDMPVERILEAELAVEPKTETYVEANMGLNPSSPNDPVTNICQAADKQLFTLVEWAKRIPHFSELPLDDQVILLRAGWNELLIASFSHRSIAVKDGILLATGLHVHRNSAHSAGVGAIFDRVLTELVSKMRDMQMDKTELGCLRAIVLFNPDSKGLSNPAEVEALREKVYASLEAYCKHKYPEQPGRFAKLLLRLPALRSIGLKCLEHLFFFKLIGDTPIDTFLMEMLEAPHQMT

Data set [4] deals with T4, PPARγ (Homo sapiens, UniProt P37231).
T4 sequence (P37231 238-505 limits assumed): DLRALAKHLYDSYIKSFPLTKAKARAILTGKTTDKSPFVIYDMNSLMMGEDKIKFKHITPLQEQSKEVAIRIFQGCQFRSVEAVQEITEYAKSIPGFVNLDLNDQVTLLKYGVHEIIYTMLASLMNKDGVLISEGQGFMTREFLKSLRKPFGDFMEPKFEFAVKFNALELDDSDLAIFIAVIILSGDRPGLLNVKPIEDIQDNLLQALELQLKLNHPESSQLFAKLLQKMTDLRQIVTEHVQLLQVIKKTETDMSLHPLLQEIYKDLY
The experiment in a line: Cotransfection (CTF) / response element assays, PPARγ in CV-1 cells. It counts as cell-based. Details: Gla4 Eff; other: response element assay, GAL4 chimeric system; A PPARγ bacterial galactosidase (GAL4) chimeric system is also used. Particulars: response element assay, GAL4 chimeric system; for EC50: read-out: Gla4 EC50.
Text: as §1

The subject of data set [5] is diabetic (db/db) mice. Briefly: Glucose, triglyceride, hematocrit levels and body weight gain in diabetic mice. Conditions: for plasma glucose normalization / plasma triglycerides normalization: db/db mice.
Procedure: Five-week-old male diabetic (db/db) mice (Harlan Laboratories, Indianapolis, Ind.) are housed in plastic cages (n=6/cage; cage size is approximately 10×20×8″ with aspen chip bedding) with free access to water (sipper system—city tap water) and food (Purina 5008). After two weeks of acclimation, animals (7 weeks of age) are bled on day 0 at 1000-1200 h (lights on 0600 h) and assigned to treatment groups (n=5 or 6) based on starting glucose values. Compound or vehicle only treatments are administered daily by oral gavage at approximately 0730 h. Body weights are measured at the beginning (day 0) and end (day 7 or day 14) of the studies. Blood is collected in heparinized tubes from the tail of nonfasted animals two to three hours after the last dose. Hematocrit, glucose and triglycerides levels are then determined. The reported values for glucose and triglyceride levels represent the % of normalization compared to the lean littermate values set at 100% or glucose normalization calculated based on a normal glucose level of 250 mg/dl. Statistical significance between experimental groups is assessed using a two-sided student's t-test.
Plasma glucose and hematocrit levels along with body weight are measured before the study began (day 0) and at the end of the study (day 14).
Plasma glucose, triglyceride, and hematocrit levels along with body weight are measured before the study began (day 0) and at the end of the study (day 7).
Data set [6] addresses T5, PPARγ ligand binding domain / peptide C33 (Homo sapiens, UniProt P37231).
T5 construct: expressed in transfected cells; host or cells: CV-1 cells
T5 sequence (P37231 238-503 limits assumed): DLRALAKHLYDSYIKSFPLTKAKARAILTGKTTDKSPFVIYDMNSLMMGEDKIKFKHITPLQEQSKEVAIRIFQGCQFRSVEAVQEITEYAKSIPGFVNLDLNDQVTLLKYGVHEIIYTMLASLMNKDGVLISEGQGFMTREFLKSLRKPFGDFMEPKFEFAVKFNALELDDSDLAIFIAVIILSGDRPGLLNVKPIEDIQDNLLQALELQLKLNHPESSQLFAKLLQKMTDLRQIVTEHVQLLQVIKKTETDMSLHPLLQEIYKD
The experiment in a line: Co-factor recruitment assay (mammalian-2-hybrid, CV-1 cells), peptide C33. Type of data set: cell-based. Particulars: for C33 Eff: relative to a PPARγ full agonist.
Text: as §2

Setting [7] is: 3 mg/kg/day oral gavage, 7 days.
The mark [8] stands for this setting: 10 mg/kg/day oral gavage, 7 days.
The mark [9] stands for this setting: 30 mg/kg/day oral gavage, 7 days.
Setting [10] is: 100 mg/kg/day oral gavage, 7 days.

T2 sequence (Q15648 whole entry partner, species assumed, one chain of several, the tested form may be a part): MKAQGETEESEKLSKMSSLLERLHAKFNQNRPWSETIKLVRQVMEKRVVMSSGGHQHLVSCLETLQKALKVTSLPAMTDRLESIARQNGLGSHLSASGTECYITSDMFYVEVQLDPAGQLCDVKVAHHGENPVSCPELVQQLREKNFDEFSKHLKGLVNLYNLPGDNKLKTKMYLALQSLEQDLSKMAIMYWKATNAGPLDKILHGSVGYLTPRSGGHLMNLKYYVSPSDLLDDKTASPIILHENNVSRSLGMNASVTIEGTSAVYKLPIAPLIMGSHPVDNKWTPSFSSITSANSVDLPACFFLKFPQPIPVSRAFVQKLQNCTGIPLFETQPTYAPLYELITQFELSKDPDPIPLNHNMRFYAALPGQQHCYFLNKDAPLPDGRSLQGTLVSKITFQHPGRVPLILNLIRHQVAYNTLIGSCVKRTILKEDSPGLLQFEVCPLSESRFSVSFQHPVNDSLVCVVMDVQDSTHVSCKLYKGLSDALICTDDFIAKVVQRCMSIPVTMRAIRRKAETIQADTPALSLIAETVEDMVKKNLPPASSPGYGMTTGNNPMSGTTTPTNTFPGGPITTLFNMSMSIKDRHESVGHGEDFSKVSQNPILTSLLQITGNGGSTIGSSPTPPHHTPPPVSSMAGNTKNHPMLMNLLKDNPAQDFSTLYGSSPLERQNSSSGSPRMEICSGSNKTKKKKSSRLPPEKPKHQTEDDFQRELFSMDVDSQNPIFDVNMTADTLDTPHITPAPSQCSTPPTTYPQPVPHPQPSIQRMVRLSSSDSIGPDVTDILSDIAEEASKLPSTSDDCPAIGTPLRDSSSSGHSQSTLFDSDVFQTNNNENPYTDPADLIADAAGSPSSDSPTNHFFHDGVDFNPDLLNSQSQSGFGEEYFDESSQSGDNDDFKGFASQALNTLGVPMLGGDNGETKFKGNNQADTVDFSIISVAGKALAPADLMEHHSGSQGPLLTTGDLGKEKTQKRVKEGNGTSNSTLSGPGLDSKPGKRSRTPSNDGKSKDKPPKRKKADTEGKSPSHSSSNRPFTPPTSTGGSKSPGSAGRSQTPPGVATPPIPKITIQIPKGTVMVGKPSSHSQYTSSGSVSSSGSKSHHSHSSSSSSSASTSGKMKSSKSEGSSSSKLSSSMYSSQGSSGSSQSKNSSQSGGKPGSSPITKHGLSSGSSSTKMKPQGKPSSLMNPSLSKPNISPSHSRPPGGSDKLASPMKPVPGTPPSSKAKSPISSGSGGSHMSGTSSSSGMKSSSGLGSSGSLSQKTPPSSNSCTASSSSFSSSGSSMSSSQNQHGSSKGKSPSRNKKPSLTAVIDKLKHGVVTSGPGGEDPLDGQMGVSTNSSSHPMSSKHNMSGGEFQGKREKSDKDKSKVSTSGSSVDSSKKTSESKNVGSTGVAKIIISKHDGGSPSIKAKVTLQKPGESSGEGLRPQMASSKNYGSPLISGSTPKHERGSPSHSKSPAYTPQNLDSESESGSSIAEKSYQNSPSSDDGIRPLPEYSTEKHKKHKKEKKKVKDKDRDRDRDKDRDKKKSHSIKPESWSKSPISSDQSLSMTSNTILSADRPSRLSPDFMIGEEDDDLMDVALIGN

Regarding `CCOc1ccc(CCNC(=O)COc2ccc(C[C@H](OC)C(=O)O)cc2)cc1` [formula V, (S)-3-(4-{[2-(4-ethoxy-phenyl)-ethylcarbamoyl]-methoxy}-phenyl)-2-methoxy-propionic acid], the EC50 was 1810 nM in data set [1], 3060 nM in data set [2], 1910 nM in data set [4] and 2890 nM in data set [6]. Moreover, the “Eff (α)” value in data set [1] is given as 39 % efficacy. Also, the “TRAP220 Eff” value in data set [2] amounted to 16 % efficacy. This compound also registered an IC50 in data set [3] of 30 nM. In addition, the “Gla4 Eff” value in data set [4] stood at 39 % efficacy. Further, the plasma glucose normalization in data set [5] (setting [7]) is 61.2 % normalization; in data set [5] (setting [8]) it was 87.5 % normalization; in data set [5] (setting [9]) it was 105.6 % normalization; in data set [5] (setting [10]) it was 110.3 % normalization. Further, the plasma triglycerides normalization in data set [5] (setting [7]) came to 108.1 % normalization; in data set [5] (setting [8]), 108.1 % normalization; in data set [5] (setting [9]), 121.1 % normalization; in data set [5] (setting [10]), 130.6 % normalization. Further, the “C33 Eff” value in data set [6] was determined as 43 % efficacy.

In the case of `COc1ccc(CCNC(=O)COc2ccc(C[C@H](OC)C(=O)O)cc2)cc1` [formula III, (2S)-3-(4-{[2-(4-methoxy-phenyl)-ethylcarbamoyl]-methoxy}-phenyl)-2-methoxy-propionic acid], the figures for the half-maximal effective concentration (EC50) in data set [1], in data set [4] and in data set [6] were 1300 nM, 1980 nM and 3010 nM, respectively. Also, in data set [1], the “Eff (α)” value is given as 43 % efficacy. In addition, the TRAP220 efficacy entry in data set [2] is on record as “Eff < 20”. In data set [2], the “TRAP220 Eff” value was found to be 7 % efficacy. Moreover, the half-inhibitory concentration (IC50) in data set [3] came out at 52 nM. The “Gla4 Eff” value in data set [4] was determined as 30 % efficacy. Also, the plasma glucose normalization in data set [5] (1 mg/kg/day oral gavage, 14 days) is listed as 42.7 % normalization; in data set [5] (3 mg/kg/day oral gavage, 14 days), 68.3 % normalization; in data set [5] (10 mg/kg/day oral gavage, 14 days) it was 96.1 % normalization; in data set [5] (30 mg/kg/day oral gavage, 14 days) it was 109.3 % normalization. Besides, the “dose-dependent reduction in hematocrit levels, indicative of plasma volume expansion” value in data set [5] (db/db mice, 1, 3, 10, 30 mg/kg/day oral gavage, 14 days) is given as “not seen”. Also, the “C33 Eff” value in data set [6] was found to be 13 % efficacy.

As usually defined, the EC50 is the concentration needed to bring the measured effect to its halfway point. What is called IC50 is the midpoint of a concentration-inhibition curve.
